Assay results taken from US8815219B2, “Sunless tanning with pyranones and furanones” (Conopco, Inc., priority 2009, dated 2014).
Values belong to the molecule of their own block, whether it stands above or below them.

Legend:
[1] = Visual observation and photographs of tanning rate (color formation) in DHA/glycine compositions; details: Allomaltol 0.5-3 wt.% added to 5% DHA, 5% glycine in water; visual observations and photographs
Description: (§1) Compositions comprising Allomaltol were made by mixing the following: […]

[2] = Color development of DHA/glycine compositions by spectrophotometer at 400 nm; details: for enhancement in tanning: Example 6, conclusion from 6 and 27 hour results, DHA 5%, glycine 5%
Protocol: Color development for the above was also assessed using a spectrophotometer set at a wavelength of 400 nm. […] Compositions comprising KOjic acid or Allomaltol were made by mixing the following ingredients at room temperature. […] Visual observation and photographs were taken after 27 hours of mixing. […] 35%, 38% and 19%, respectively, as determined by assessing the Samples with a Spectrophotometer, wavelength 400 nm. […] Compositions were made by mixing the following ingredients at room temperatures. […] All percents are by weight. The Samples were assessed for color development (with a Spectrophometer, 400 nm wavelength) three (3) days after mixing. […] The following compositions were mixed in a manner similar to the one described in Example 7. The Samples were assessed (with a Spectrophotometer, 400 nm wavelength) fifteen (15) hours after mixing.

[3] = Dissolution of Allomaltol in the aqueous composition; type: physicochemical; details: 3 wt.% Allomatol in 5% DHA, 5% glycine, balance water (Example 3 Sample 5)
Description: as §1

[4] = 400 nm, after 20 hours of mixing, 5% DHA, 5% glycine

Allomatol dissolved [3]: ***= circa 95% Allomatol was dissolved.
SMILES: Cc1cc(=O)c(O)co1 [Allomaltol, 3-hydroxy-6-methyl, 4-pyrone]
tanning rate (color formation) [1]: enhanced
color development at 3% Allomaltol greater than at 0.5% Allomaltol [2, 4]: 45%
color development at 3% Allomaltol greater than at 1% Allomaltol [2, 4]: 40%
color development at 3% Allomaltol greater than at 2% Allomaltol [2, 4]: 20%
color development at 3% Allomaltol greater than composition deplete of adjuvant [2, 4]: 60%
enhancement in tanning [2]: enhancement in tanning

SMILES: O=c1cc(CO)occ1O [Kojic acid]
enhancement in tanning [2]: enhancement in tanning

color body generation with glycine and no DHA ([2]; Example 8, 0.5% adjuvant, 5% glycine, fifteen hours after mixing): No color body generation
SMILES: Cc1cc(=O)c(NCC(=O)O)co1 [adjuvant]

SMILES: O=c1cc(CCl)occ1O [chlorinated adjuvant]
color body generation with glycine and no DHA ([2]; Example 7, 0.25% chlorinated adjuvant, 5% glycine, three days after mixing): No color body generation
